Experiments:
[1] = molecular target: T1, TRPC5 channel (Homo sapiens, UniProt Q9UL62); test: High throughput screening assay: Fluo4 cell-based fluorescence assay of intracellular Ca2+ rise in HEK293/TREx cells inducibly expressing TRPC5; settings: Table 2, Ca2+ influx, 14 mM Ca2+
T1 construct: expressed in transfected cells; host or cells: HEK293/TREx (Invitrogen), stably transfected, induced with tetracycline
T1 sequence (Q9UL62 1-973): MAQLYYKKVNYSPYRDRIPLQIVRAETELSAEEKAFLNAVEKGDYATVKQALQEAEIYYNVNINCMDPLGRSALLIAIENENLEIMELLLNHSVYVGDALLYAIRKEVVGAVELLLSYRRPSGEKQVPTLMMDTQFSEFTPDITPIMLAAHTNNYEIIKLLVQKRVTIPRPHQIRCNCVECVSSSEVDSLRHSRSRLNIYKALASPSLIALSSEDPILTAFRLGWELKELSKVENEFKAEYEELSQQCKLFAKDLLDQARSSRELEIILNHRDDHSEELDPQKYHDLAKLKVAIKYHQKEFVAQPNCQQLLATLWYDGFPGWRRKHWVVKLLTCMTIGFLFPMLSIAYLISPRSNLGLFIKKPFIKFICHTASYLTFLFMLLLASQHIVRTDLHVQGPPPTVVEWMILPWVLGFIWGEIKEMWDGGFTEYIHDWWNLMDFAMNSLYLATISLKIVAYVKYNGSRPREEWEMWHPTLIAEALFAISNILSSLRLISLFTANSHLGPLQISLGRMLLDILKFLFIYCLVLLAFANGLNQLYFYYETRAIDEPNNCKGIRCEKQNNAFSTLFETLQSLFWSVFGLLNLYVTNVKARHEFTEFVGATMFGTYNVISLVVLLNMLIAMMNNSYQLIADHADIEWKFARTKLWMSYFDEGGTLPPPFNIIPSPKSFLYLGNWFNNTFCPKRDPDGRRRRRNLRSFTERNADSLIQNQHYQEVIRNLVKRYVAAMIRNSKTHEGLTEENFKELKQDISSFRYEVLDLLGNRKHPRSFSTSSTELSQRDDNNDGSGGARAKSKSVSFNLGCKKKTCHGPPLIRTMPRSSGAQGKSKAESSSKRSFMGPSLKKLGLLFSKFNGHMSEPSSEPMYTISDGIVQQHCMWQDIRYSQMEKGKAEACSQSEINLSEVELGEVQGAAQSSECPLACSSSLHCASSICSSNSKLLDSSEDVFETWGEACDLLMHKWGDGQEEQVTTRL
From the text: The assay depended on detection of the rise in intracellular Ca2+ concentration ([Ca2+]i) following channel activation in cells inducibly expressing the TRPC5 channel. Ca2+ rise was quantified with the use of fluorescent Ca2+ indicators that were loaded into cells and thereafter indicated the [Ca2+]i Ca2+ influx followed activation of the TRPC5 channel. Compounds inhibiting the [Ca2+]i rise were considered hits for further investigation.
The commercially available HEK293/TREx line (Invitrogen) was stably transfected with a TRPC5 construct and screened by conventional calcium imaging to find clones with TRPC5 expression following stimulation with 1 μg/ml tetracycline. These cells were maintained in the growth medium recommended by the manufacturer supplemented with 100 μg/ml hygromycin to promote retention of the TRPC5 construct. After growing to near confluency, cells were plated at a density of ˜35,000 cells/well in 384 well CellBind plates (Corning) in the presence of 1 μg/ml tetracycline, and allowed to grow for 20-30 hrs. A nearly confluent monolayer resulted. Cells were then loaded with Ca2+ dye: Fura-2/AM or Fluo4/AM was added to the wells to a final concentration of 4 μM or 0.5 μM, respectively, and incubated for 80 min or 60 min, respectively, at room temperature. Supernatant was then removed from the cells by inverting plates with a sharp flick, and 25 μl Hank's Balanced Salt Solution (HBSS; 0.185 g/l D-glucose, 0.9767 g/l MgS04 (anhydrous), 0.4 g/l KCl, 0.06 g/l KH2PO4 (anhydrous), 0.35 g/l NaHCO3, 8.0 g/l NaCl, and 0.04788 g/l Na2HPO4 (anhydrous); pH 7.4) was then added to each well. Following ˜0.5 hour for recovery from loading, cells were assayed using the Hamamatsu FDSS 6000 system, which permitted illumination alternately at 340 nm and 380 nm for Fura-2 experiments, or at 485 nm for Fluo4 experiments. Frames were acquired at a rate of 0.2 Hz. During the assay, the plates were continuously vortexed, with pipette mixing of wells following addition of each reagent. For the screening assay, 26 μl of a diluted compound stock (at 50 μM) was added to each well for 2 minutes following the collection of a short (4 frame) baseline. 13 μl 62 mM high-Ca2+ Ringer solution (4.17 ml of normal ringer (with 2 mM Ca2+) plus 5.83 ml of isotonic calcium ringer (105 mM Ca2+; in this ringer all sodium has been replaced with calcium)) was then added to each well, achieving a final concentration of 14 mM Ca2+ and 10 μM test compound. Data was collected for ˜3 minutes following addition of high Ca2+ Ringer, where the fluorescent intensity (for Fluo4) and the F340/F380 ratio (for Fura-2) were proportional to the [Ca2+]i Negative controls consisted of HEK293/TREx TRPC5 cells exposed to high Ca2+ solution, but no compound. Positive control conditions consisted of addition of 2-APB, a promiscuous blocker of TRPC5 and other channels, to columns 23 and 24 of the plates, to a final concentration of 200 μM. These controls defined a screening window, and “hits” were defined as those compounds inhibiting the fluorescence response by at least 40%. IC50 values were determined for compounds defined as “hits.” The Fluo4 cell-based fluorescence assay was used to determine the intracellular Ca2+ concentration in the presence of varying drug concentration. Final concentrations of compounds tested were 20 μM, 6.667 μM, 2.222 μM, 0.741 μM, 0.247 μM, 0.082 μM, and 0.027 μM. Compounds were tested in triplicate at all concentrations. Standard software was used to fit IC50 curves. […]

[2] = molecular target: T1, TRPC5 channel; test: Whole-cell patch clamp experiments, TRPC5 current activated by LaCl3 in TRPC5-expressing HEK293 TREx cells; format: cell-based; settings: Table 3, block of TRPC5 current in continued presence of LaCl3, IC50 estimated
From the text: Patch clamp experiments permit the detection of currents through the TRPC5 channel in the cell line described above. In normal whole-cell patch clamp recordings, a glass electrode is brought into contact with a single cell and a high-resistance (gigaohm) seal is established with the cell membrane. The membrane is then ruptured to achieve the whole-cell configuration, permitting control of the voltage of the cell membrane and measurement of currents flowing across the membrane using the amplifier attached to the electrode and resulting in the replacement of cytoplasm with the pipette solution. A perfusion system permits control of the extracellular solution, including the addition of blockers and activators of the current. The current can be activated by including 1.4 μM free Ca^2+ in the pipette (intracellular) solution, and 80 μM LaCl3 in the extracellular solution.
TRPC5 cells were induced 20-48 hours, removed from growth plates, and replated at low density (to attain good single-cell physical separation) on glass coverslips for measurement. In some cases, cells were grown in low density overnight on glass coverslips. Patch clamp recordings were made in the whole-cell mode with a holding potential of −40 mV. Every 5 seconds, a voltage ramp was applied from −120 to +100 mV, 400 ms in duration. Currents elicited were quantified at −80 mV and +80 mV. The internal solution consisted of 140 mM cesium aspartate, 10 mM HEDTA, 2 mM CaCl2, 2.27 mM MgCl2 and 10 mM HEPES, pH 7.2, with 1,400 nM calculated free Ca^2+. The external solution consisted of 150 mM NaCl, 4.5 mM KCl, 1 mM MgCl2, 2 mM CaCl2, 10 mM HEPES, 10 mM glucose, 1 mM EGTA, pH 7.4. Upon addition of LaCl3, TRPC5 current was induced only in TRPC5-expressing cells and not in parental HEK293 TREx cells. Removal of the LaCl3 stimulus causes most of the current to go away. Potential blockers were tested for ability to block both inward and outward currents in the continued presence of LaCl3.
IC50 of a compound of Formula (I) was estimated by testing the compound at 5 μM and 500 nM. […] IC50 for a compound of Formula (I) between 500 nM and 5 μM was similarly estimated.

Row | SMILES | IC50 [1] [nM] | IC50 [2] [nM]
1 | Cn1c(=O)n(CCCO)c(=O)c2c(Cc3ccc(Cl)cc3)c(Oc3cccc(OC(F)(F)F)c3)ccc21 [Compound 4, 5-(4-chlorobenzyl)-3-(3-hydroxypropyl)-1-methyl-6-(3-(trifluoromethoxy)phenoxy)quinazoline-2,4(1H,3H)-dione] | – | 1.52
2 | Cn1c(=O)n(CCCO)c(=O)c2c(Cc3ccccc3)c(Oc3cccc(Cl)c3)ccc21 [Compound 3, 5-benzyl-6-(3-chlorophenoxy)-3-(3-hydroxypropyl)-1-methylquinazoline-2,4(1H,3H)-dione] | 395 | 2.1
3 | Cn1c(=O)n(CCCO)c(=O)c2c(Cc3ccc(F)cc3)c(Oc3cccc(OC(F)(F)F)c3)ccc21 [Compound 6, 5-(4-fluorobenzyl)-3-(3-hydroxypropyl)-1-methyl-6-(3-(trifluoromethoxy)phenoxy)quinazoline-2,4(1H,3H)-dione] | 61 | 1.77
4 | Cn1c(=O)n(CCCO)c(=O)c2c(Cc3ccccc3)c(-c3cccc(OC(F)(F)F)c3)ccc21 [Compound 13, 5-benzyl-3-(3-hydroxypropyl)-1-methyl-6-(3-(trifluoromethoxy)phenyl)quinazoline-2,4(1H,3H)-dione] | 31.2 | –

More lines, now with the values ahead:

Row | IC50 [1] [nM] | IC50 [2] [nM] | SMILES
5 | 27 | – | COc1ccc2c(c1Cc1ccccc1)c(=O)n(CCCO)c(=O)n2C [Compound 2]
6 | – | 4.2 | CCOc1ccc2c(c1Cc1ccc(Cl)cc1)c(=O)n(CCCO)c(=O)n2C [Compound 11, 5-(4-chlorobenzyl)-6-ethoxy-3-(3-hydroxypropyl)-1-methylquinazoline-2,4(1H,3H)-dione]
7 | – | 4.3 | CCCOc1ccc2c(c1Cc1ccc(Cl)cc1)c(=O)n(CCCO)c(=O)n2C [Compound 10, 5-(4-chlorobenzyl)-3-(3-hydroxypropyl)-1-methyl-6-propoxyquinazoline-2,4(1H,3H)-dione]
8 | 1.71 | 2 | CCCOc1ccc2c(c1Cc1ccc(F)cc1)c(=O)n(CCCO)c(=O)n2C [Compound 8, 5-(4-fluorobenzyl)-3-(3-hydroxypropyl)-1-methyl-6-propoxyquinazoline-2,4(1H,3H)-dione]

Reference: patent US9745272B2, “Quinazoline-2,4(1 H,3H)-dione derivatives” (Hydra Biosciences, Inc., priority 2014, dated 2017)
